These results are taken from BindingDB's records for doi:10.1021/np0302302 (Schering-Plough Research Institute, 2003).

For this test, the target named is DNA primase DnaG (Escherichia coli) (UniProt P0ABS5). Put plainly: Inhibition of Escherichia coli DNA primase after 1 hr by [3H]rNTPs incorporation assay.
DNA primase DnaG (Escherichia coli), sequence (P0ABS5 whole entry, looked up): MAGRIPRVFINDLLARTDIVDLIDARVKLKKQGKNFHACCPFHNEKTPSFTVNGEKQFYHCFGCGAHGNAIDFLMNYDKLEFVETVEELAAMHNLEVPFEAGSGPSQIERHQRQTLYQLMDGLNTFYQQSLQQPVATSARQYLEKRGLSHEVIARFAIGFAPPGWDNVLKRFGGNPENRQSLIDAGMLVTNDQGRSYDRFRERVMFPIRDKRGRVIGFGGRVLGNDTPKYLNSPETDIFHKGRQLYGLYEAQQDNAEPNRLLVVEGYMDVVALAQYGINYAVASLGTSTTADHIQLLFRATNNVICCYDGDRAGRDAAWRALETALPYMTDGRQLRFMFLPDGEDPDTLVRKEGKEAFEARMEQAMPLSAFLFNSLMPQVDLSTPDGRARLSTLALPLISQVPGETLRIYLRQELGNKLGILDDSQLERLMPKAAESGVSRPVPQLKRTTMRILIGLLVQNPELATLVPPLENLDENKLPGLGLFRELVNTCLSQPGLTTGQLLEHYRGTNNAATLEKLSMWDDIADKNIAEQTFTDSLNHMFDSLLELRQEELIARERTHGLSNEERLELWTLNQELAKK

Consider `C[C@H]1CCCC[C@H]2C(=O)C=C[C@H](O)[C@@H]2CC(=O)O1` [(4S,8aR,12S,12aR)-12-hydroxy-4-methyl-4,5,6,7,8,8a-hexahydro-1H-benzo[d]oxecine-2,9(12H,12aH)-dione], for which a half-maximal effect (EC50) was put at 70 µM. This counts as double-digit micromolar.

Usually EC50 stands for the concentration needed to bring the measured effect to its halfway point. Read a low EC50 as an effect from little substance.
